The NIST ThermoML archive (doi:10.1016/j.fluid.2014.09.014)

Test: refractive index (other wavelength) (dimensionless); xn = mol fraction of the nth substance listed
Conditions: 101 kPa, Liquid, Standard Abbe refractometry

CC(C)OC(C)C [diisopropyl ether] + CO
refractive index
Conditions | Wavelength=40.47 nm | Wavelength=486.1 nm | Wavelength=546.1 nm | Wavelength=587.6 nm | Wavelength=589.3 nm | Wavelength=632.8 nm | Wavelength=644 nm | Wavelength=706.5 nm
303.15 K, x2 = 0 | – | – | 1.36406 | 1.3626 | 1.36255 | 1.3613 | 1.361 | 1.3596
303.15 K, x2 = 0.0424 | – | – | 1.36403 | 1.36256 | 1.36251 | 1.36124 | 1.36094 | 1.35954
303.15 K, x2 = 0.082 | – | – | 1.36396 | 1.3625 | 1.36245 | 1.3612 | 1.3609 | 1.35948
303.15 K, x2 = 0.0822 | – | – | 1.36406 | 1.36261 | 1.36256 | 1.36129 | 1.36099 | –
303.15 K, x2 = 0.1171 | – | – | 1.36389 | 1.36245 | 1.3624 | 1.36114 | 1.36084 | 1.35943
303.15 K, x2 = 0.1271 | – | 1.36672 | 1.36392 | 1.36246 | 1.3624 | 1.36116 | 1.36086 | 1.35944
303.15 K, x2 = 0.1827 | – | 1.36639 | 1.36258 | 1.36214 | 1.36209 | 1.36085 | 1.36055 | 1.35913
303.15 K, x2 = 0.2162 | – | 1.36618 | 1.36341 | 1.36196 | 1.36191 | 1.36065 | 1.36036 | 1.35895
303.15 K, x2 = 0.251 | – | 1.36621 | 1.36343 | 1.36198 | 1.36193 | 1.36068 | 1.36039 | 1.35898
303.15 K, x2 = 0.3298 | – | 1.36561 | 1.36283 | 1.3614 | 1.36134 | 1.36011 | 1.35981 | 1.35839
303.15 K, x2 = 0.3577 | – | 1.36581 | 1.36302 | 1.36159 | 1.36153 | 1.36029 | 1.35999 | 1.35898
303.15 K, x2 = 0.4497 | – | 1.36334 | 1.36058 | 1.35917 | 1.35912 | 1.35789 | 1.3576 | 1.35619
303.15 K, x2 = 0.4525 | – | 1.36382 | 1.36107 | 1.35964 | 1.35959 | 1.35835 | 1.35805 | 1.35666
303.15 K, x2 = 0.522 | – | 1.36159 | 1.35886 | 1.35746 | 1.35741 | 1.35619 | 1.3559 | 1.3545
303.15 K, x2 = 0.5543 | – | 1.36106 | 1.35836 | 1.35695 | 1.3569 | 1.35568 | 1.35539 | 1.35399
303.15 K, x2 = 0.609 | – | 1.35828 | 1.35561 | 1.35421 | 1.35416 | 1.35295 | 1.35266 | 1.35129
303.15 K, x2 = 0.6529 | – | 1.35681 | 1.35414 | 1.35275 | 1.35269 | 1.3515 | 1.35122 | 1.34985
303.15 K, x2 = 0.7504 | – | 1.35295 | 1.35029 | 1.34898 | 1.34888 | 1.34771 | 1.34743 | 1.34608
303.15 K, x2 = 0.804 | – | 1.34869 | 1.34608 | 1.34474 | 1.34469 | 1.34354 | 1.34327 | 1.34193
303.15 K, x2 = 0.807 | – | 1.34861 | 1.34603 | 1.34467 | 1.34462 | 1.34346 | 1.3432 | 1.34186
303.15 K, x2 = 0.8727 | – | 1.34352 | 1.34092 | 1.33965 | 1.3396 | 1.33846 | 1.3382 | 1.33691
303.15 K, x2 = 0.9233 | – | 1.33657 | 1.33409 | 1.33279 | 1.33274 | 1.33164 | 1.33139 | 1.33015
303.15 K, x2 = 0.9253 | – | 1.33839 | 1.3359 | 1.33458 | 1.33453 | 1.33342 | 1.33317 | 1.3319
303.15 K, x2 = 0.9527 | – | 1.33525 | 1.33279 | 1.3315 | 1.33145 | 1.33035 | 1.33009 | 1.32886
303.15 K, x2 = 0.9773 | – | 1.33174 | 1.32933 | 1.32803 | 1.32799 | 1.32689 | 1.32665 | 1.32546
303.15 K, x2 = 0.989 | – | 1.33062 | 1.3282 | 1.32693 | 1.32688 | 1.32579 | 1.32555 | 1.32216
303.15 K, x2 = 0.9964 | – | 1.32929 | 1.32688 | 1.32561 | 1.32557 | 1.32451 | 1.32427 | 1.32308
308.15 K, x2 = 0 | 1.37035 | – | – | – | – | – | – | –
308.15 K, x2 = 0.0423 | 1.37024 | – | – | – | – | – | – | –
308.15 K, x2 = 0.0424 | 1.37025 | – | – | – | – | – | – | –
308.15 K, x2 = 0.082 | 1.37021 | – | – | – | – | – | – | –
